Data: patent publication US20240083872A1, “CYCLIC AMINE DERIVATIVES HAVING SEROTONIN RECEPTOR BINDING ACTIVITY” (Shionogi & Co., Ltd., priority 2020, published 2024)
Where two headings read alike, the source gives them in different places.

Key:
[1] = target: human recombinant 5-HT2A receptor (Homo sapiens (Human), UniProt P28223); assay: 5-HT2A receptor binding inhibition test ([3H]-Ketanserin); settings: Jump-In HEK cell membrane
Protocol: Test Example 1: 5-HT2A Receptor Binding Inhibition Test
(§1) (Each Experimental Condition)
Cell membrane: Jump-In HEK cell membrane (expressing human recombinant 5-HT2A receptor)
(§2) Assay buffer: Tris-HCl 50 mmol/L (pH 7.4) containing NaCl 120 mmol/L, MgCl2.6H2O 1 mmol/L, KCl 5 mmol/L, 0.1% BSA, and CaCl2 2 mmol/L
Radioactive ligand: [^3H]-Ketanserin around Kd value calculated by the following method
(§3) Non-specific ligand: Serotonin HCl
(§4) The Kd value was calculated when the lot of cell membrane was changed. In advance, 0.5 μL of a 1 mmol/L compound for non-specific binding calculation dissolved in DMSO or DMSO was dispensed into a microplate, and the cell membrane was diluted with an Assay buffer. The radioactive ligand solution was serially diluted and the count was confirmed with a liquid scintillator. Assay buffer containing diluted cell membrane was dispensed into a microplate at 50 μL/well. Then, the radioactive ligand solution was dispensed into a microplate at 50 μL/well, and the plate was sealed. It was allowed to stand at room temperature (25° C.) for 1.5 hours. During this period, 50 mmol/L Tris-HCl (pH 7.4) was dispensed into a GF/B UniFilter plate at 50 μL/well and allowed to stand at 4° C. for 1 hour or longer. After that, filtration was performed with Cell harvester (PerkinElmer). The radioactive ligand solution was dispensed into an empty well of the GF/B UniFilter plate at 10 μL/well. After the GF/B UniFilter plate was dried at room temperature, MicroScinti 20 was dispensed into the GF/B UniFilter plate at 50 μL/well, and the plate was sealed. The GF/B UniFilter plate was allowed to stand overnight at room temperature. The radioactivity of [^3H]-Ketanserin bound to the 5-HT2A receptor was measured using Microbeta2 (PerkinElmer) at a measurement time of 1 min/well. The Saturation curve was drawn from the measured value, and the Kd value was calculated from the slope of the Scatchard Plot.
(§5) (Binding Test of the Compound According to the Present Invention)
(§6) In advance, 0.5 μL of the compound solution dissolved in DMSO was dispensed into a microplate, and the cell membrane and the hot ligand were diluted with Assay buffer, respectively. Then, the Assay buffer containing the diluted cell membrane was dispensed into a microplate at 50 μL/well. Then, the radioactive ligand solution was dispensed into a microplate at 50 μL/well, and the plate was sealed. Then, it was allowed to stand at room temperature (25° C.) for 1.5 hours. During this period, 50 mmol/L Tris-HCl (pH 7.4) was dispensed into a GF/B UniFilter plate at 50 μL/well and allowed to stand at 4° C. for 1 hour or longer. After that, filtration was performed with Cell harvester (PerkinElmer). After the GF/B UniFilter plate was dried at room temperature, MicroScinti 20 was dispensed into the GF/B UniFilter plate at 50 μL/well, and the plate was sealed. The GF/B UniFilter plate was allowed to stand overnight at room temperature. The radioactivity of [^3H]-Ketanserin bound to the 5-HT2A receptor was measured using Microbeta2 (PerkinElmer) at a measurement time of 1 min/well. The non-specific binding was calculated from the radioactivity of [^3H]-Ketanserin in the presence of […] Serotonin HCl with the unlabeled ligand, and the total binding was calculated from the radioactivity of [^3H]-Ketanserin in the absence of the compound according to the present invention (Vehicle). Finally, the Ki value was calculated from the dose-response curve.
(§7) (The binding activity of the compound according to the present invention was calculated from the following binding inhibition rate (%).)
(§8) Inhibition rate (%)=[1−(c−a)/(b−a)]×100 • a; mean cpm of non-specific binding • b; mean cpm of total binding • c; cpm in the presence of the test compound

[2] = target: human recombinant 5-HT2C receptor (Homo sapiens (Human), UniProt P28335); assay: 5-HT2C receptor binding inhibition test ([3H]-Mesulergine)
human recombinant 5-HT2C receptor, sequence (P28335 33-458): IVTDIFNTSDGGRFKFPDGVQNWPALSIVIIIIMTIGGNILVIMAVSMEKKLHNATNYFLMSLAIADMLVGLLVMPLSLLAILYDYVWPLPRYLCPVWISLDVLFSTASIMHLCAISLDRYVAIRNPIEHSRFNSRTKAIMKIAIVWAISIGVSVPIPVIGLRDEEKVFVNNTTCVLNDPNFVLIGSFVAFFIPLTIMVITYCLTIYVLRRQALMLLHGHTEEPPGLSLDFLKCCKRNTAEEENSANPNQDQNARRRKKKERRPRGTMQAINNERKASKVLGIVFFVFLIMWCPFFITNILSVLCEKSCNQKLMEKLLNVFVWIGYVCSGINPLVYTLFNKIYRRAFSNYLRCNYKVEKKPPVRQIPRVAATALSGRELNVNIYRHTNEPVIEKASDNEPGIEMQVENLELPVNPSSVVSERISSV
Protocol: as §1
Cell membrane: Jump-In HEK cell membrane (expressing human recombinant 5-HT2C receptor)
as §2
Radioactive ligand: [^3H]-Mesulergine around Kd value calculated by the following method
as §3
as §4, with “[…]” for “4°”, “The radioactivity of [^3H]-Ketanserin bound to the 5-HT2A receptor was measured using Microbeta2 (PerkinElmer) at a measurement time of 1 min/well.” left out
as §5
as §6, with “37° C.” for “room temperature (25° C.)”, “2” for “1.5”, “The radioactivity of [^3H]-Ketanserin bound to the 5-HT2A receptor was measured using Microbeta2 (PerkinElmer) at a measurement time of 1 min/well.” left out, “[^3H]-Mesulergine” for “[^3H]-Ketanserin”
as §7, §8

[3] = Jump-In HEK cell membrane, [3H]-Mesulergine, read-out: h-5-HT2C Ki
[4] = read-out: human serotonin 5-HT2A receptor binding activity, Ki value
[5] = Jump-In HEK cell membrane, [3H]-Mesulergine, read-out: human serotonin 5-HT2C receptor binding inhibitory activity, Ki value

human recombinant 5-HT2A receptor, sequence (P28223 whole entry): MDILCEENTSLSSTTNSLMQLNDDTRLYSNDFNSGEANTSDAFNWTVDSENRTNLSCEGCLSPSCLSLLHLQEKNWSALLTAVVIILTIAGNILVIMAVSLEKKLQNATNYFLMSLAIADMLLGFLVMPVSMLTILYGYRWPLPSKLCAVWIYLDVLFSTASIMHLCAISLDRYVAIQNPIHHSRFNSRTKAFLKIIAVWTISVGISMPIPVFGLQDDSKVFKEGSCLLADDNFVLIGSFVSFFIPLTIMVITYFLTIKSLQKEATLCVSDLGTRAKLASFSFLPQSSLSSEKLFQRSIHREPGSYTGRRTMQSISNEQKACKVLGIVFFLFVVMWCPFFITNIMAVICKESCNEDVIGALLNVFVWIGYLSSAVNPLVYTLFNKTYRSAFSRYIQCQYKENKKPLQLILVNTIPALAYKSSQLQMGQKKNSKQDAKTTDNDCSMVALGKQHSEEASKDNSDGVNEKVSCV

Row | Compound | Ki ([1]; read-out: h-5-HT2A Ki) [µM] | Ki [2, 3] [µM] | Ki [1, 4] [µM] | Ki [2, 5] [µM] | Ki [2] [µM]
1 | CC(C)COc1ccc(CN(Cc2ccn(C)n2)C(=O)N[C@@H]2CCNCC2(F)F)cc1 [Compound I-027] | 0.1 to 5 | 0.1 to 5 |  |  | 
2 | CN1CCC(NC(=O)N(Cc2ccc(C3CC3)cc2)Cc2ccn(C)n2)CC1 [Compound I-029] |  |  | 0.00433 | 0.0205 | 
3 | Cc1ccc(CN(Cc2ccc(OCC(C)C)cc2)C(=O)NC2CCN(C)CC2)nc1 [Compound I-031] |  |  | 0.000709 | 0.00189 | 
4 | CC(C)COc1ccc(CN(Cc2cc3ccccc3o2)C(=O)NC2CCN(C)CC2)cc1 [Compound I-033] |  |  | 0.00401 | 0.0289 | 
5 | CC(C)COc1ccc(CN(Cc2cocn2)C(=O)NC2CCN(C)CC2)cc1 [Compound I-035] | < 0.01 | 0.01 to 0.1 |  |  | 
6 | CC(C)COc1ccc(CN(Cc2ccn(C)n2)C(=O)N[C@H]2CCN(C)CC23CC3)cc1 [Compound I-037] |  |  | 0.0047 | 0.00211 | 
7 | Cc1cc(CN(Cc2ccc(OCC(C)C)cc2)C(=O)NC2CCN(C)CC2)no1 [Compound I-039] | 0.01 to 0.1 | 0.01 to 0.1 |  |  | 
8 | COc1ccc(CN(Cc2ccc(F)cn2)C(=O)NC2CCN(C)CC2)cc1 [Compound I-042] | < 0.01 | 0.01 to 0.1 |  |  | 
9 | CN1CCC(NC(=O)N(Cc2ccc(OC(F)(F)F)cc2)Cc2ccn(C)n2)CC1 [Compound I-046] |  |  | 0.00309 | 0.0145 | 
10 | CC(C)Oc1ccc(CN(Cc2ccn(C)n2)C(=O)NC2CCN(C)CC2)cc1 [Compound I-047] | 0.01 to 0.1 | 0.01 to 0.1 |  |  | 
11 | CC(C)COc1ccc(CN(Cc2ccn(C)n2)C(=O)N[C@H]2[C@@H]3CN(C)C[C@@H]32)cc1 [Compound I-058] | 0.01 to 0.1 | 0.01 to 0.1 |  |  | 
12 | CC(C)COc1ccc(CN(Cc2ccn(C)n2)C(=O)NCC2CN(C)C2)cc1 [Compound I-059] | 0.01 to 0.1 | 0.1 to 5 |  |  | 
13 | COCCN1CCC(NC(=O)N(Cc2ccc(OCC(C)C)cc2)Cc2ccn(C)n2)CC1 [Compound I-063] | 0.01 to 0.1 | 0.01 to 0.1 |  |  | 
14 | CC(C)COc1ccc(CN(Cc2ccn(C)n2)C(=O)N[C@H]2CCN(C)C[C@@H]2C)cc1 [Compound I-064] | < 0.01 | < 0.01 |  |  | 
15 | CC(C)COc1ccc(CN(Cc2ccn(C)n2)C(=O)N[C@@H]2CCN(C)C[C@H]2C)cc1 [Compound I-065] | < 0.01 | < 0.01 |  |  | 
16 | CC(C)COc1ccc(CN(Cc2ccn(C)n2)C(=O)NC23CCN(CC2)CC3)cc1 [Compound I-068] | 0.01 to 0.1 |  |  |  | 0.1 to 5
17 | CC(C)COc1ccc(CN(Cc2ccn(C)n2)C(=O)N[C@H]2C[C@H]3CC[C@@H](C2)N3C)cc1 [Compound I-070] | 0.01 to 0.1 |  |  |  | 0.01 to 0.1
18 | CC(C)COc1ccc(CN(Cc2ccn(C)n2)C(=O)NC2CCN(CC3CCC3)CC2)cc1 [Compound I-076] | < 0.01 | 0.01 to 0.1 |  |  | 
19 | Cc1nc(CN(Cc2ccc(OCC(C)C)cc2)C(=O)N[C@H]2CCN(C)C[C@H]2F)co1 [Compound I-078] | < 0.01 | < 0.01 |  |  | 
20 | CC(C)COc1ccc(CN(Cc2ccn(C)n2)C(=O)NC2CCNCC2)cc1 [Compound I-079] | < 0.01 | < 0.01 |  |  | 
21 | Cc1nc(CN(Cc2ccc(OCC(C)C)cc2)C(=O)N[C@H]2CCNC[C@H]2F)co1 [Compound I-080] | < 0.01 | < 0.01 |  |  | 
22 | Cc1ccc(CN(Cc2ccc(OCC(C)C)cc2)C(=O)OC2CCN(C)CC2)[nH]1 [Compound I-085] | < 0.01 | 0.01 to 0.1 |  |  | 

Continued, in another order:

Row | Ki ([1]; read-out: h-5-HT2A Ki) [µM] | Ki [2, 3] [µM] | Compound | Ki [1, 4] [µM] | Ki [2, 5] [µM] | Ki [2] [µM]
23 | 0.01 to 0.1 | 0.01 to 0.1 | CC(C)COc1ccc(CN(Cc2nccs2)C(=O)NC2CCN(C)CC2)cc1 [Compound I-025] |  |  | 
24 | 0.01 to 0.1 | 0.1 to 5 | CN1CCC(NC(=O)N(Cc2ccc3c(c2)OCO3)Cc2ccn(C)n2)CC1 [Compound I-026] |  |  | 
25 | 0.01 to 0.1 | 0.1 to 5 | CC(C)COc1ccc(CN(Cc2ccc(C#N)cn2)C(=O)NC2CCN(C)CC2)cc1 [Compound I-032] |  |  | 
26 | < 0.01 | 0.01 to 0.1 | CC(C)COc1ccc(CN(Cc2cccs2)C(=O)NC2CCN(C)CC2)cc1 [Compound I-034] |  |  | 
27 | 0.01 to 0.1 | 0.1 to 5 | CC(C)COc1ccc(CN(Cc2ccn(C)n2)C(=O)CN2CCN(C)CC2)cc1 [Compound I-036] |  |  | 
28 | 0.01 to 0.1 | 0.01 to 0.1 | Cc1ccc(CN(Cc2ccn(C)n2)C(=O)NC2CCN(C)CC2)cc1 [Compound I-038] |  |  | 
29 | < 0.01 | 0.01 to 0.1 | CC(C)COc1ccc(CN(Cc2ccn(C)c2)C(=O)NC2CCN(C)CC2)cc1 [Compound I-040] |  |  | 
30 | 0.01 to 0.1 | 0.01 to 0.1 | CC(C)COc1ccc(CN(Cc2nn(C)cc2Cl)C(=O)NC2CCN(C)CC2)cc1 [Compound I-041] |  |  | 
31 | < 0.01 | < 0.01 | CC(C)COc1ccc(CN(Cc2ccn(C)n2)C(=O)N[C@H]2CCNC[C@H]2F)cc1 [Compound I-048] |  |  | 
32 | < 0.01 | < 0.01 | CC(C)COc1ccc(CN(Cc2ccn(C)n2)C(=O)N[C@H]2CCN(C)C[C@H]2F)cc1 [Compound I-049] |  |  | 
33 | < 0.01 | < 0.01 | CC(C)COc1ccc(CN(Cc2ccc(F)cn2)C(=O)N[C@H]2CCN(C)C[C@H]2F)cc1 [Compound I-050] |  |  | 
34 | 0.1 to 5 | 0.1 to 5 | COc1ccc(CN(Cc2ccn(C)n2)C(=O)NC2CCN(C)CC2)nc1 [Compound I-051] |  |  | 
35 | 0.01 to 0.1 | 0.01 to 0.1 | CC(C)COc1ccc(CN(Cc2cnn(C)c2)C(=O)NC2CCN(C)CC2)cc1 [Compound I-060] |  |  | 
36 | < 0.01 | 0.01 to 0.1 | CC(C)COc1ccc(CN(Cc2ccn(C)n2)C(=O)NC2CC3CC2CN3C)cc1 (stereo not shown) [Compound I-061] |  |  | 
37 | 0.01 to 0.1 | 0.1 to 5 | CC(C)COc1ccc(CN(Cc2ccn(C)n2)C(=O)NC2(C)CCN(C)CC2)cc1 [Compound I-066] |  |  | 
38 | < 0.01 | 0.01 to 0.1 | CCN1CCC(NC(=O)N(Cc2ccc(OCC(C)C)cc2)Cc2ccn(C)n2)CC1 [Compound I-069] |  |  | 
